Experimental data from article PMC6382696, “Drug Repurposing: The Anthelmintics Niclosamide and Nitazoxanide Are Potent TMEM16A Antagonists That Fully Bronchodilate Airways” (Frontiers in Pharmacology, 2019).

Biological target: T1, hTMEM16A (abc) (Homo sapiens, UniProt Q5XXA6, DEL476-501)
T1 sequence (Q5XXA6 with tags, fused parts or gaps isoform Q5XXA6-5 DEL539-564): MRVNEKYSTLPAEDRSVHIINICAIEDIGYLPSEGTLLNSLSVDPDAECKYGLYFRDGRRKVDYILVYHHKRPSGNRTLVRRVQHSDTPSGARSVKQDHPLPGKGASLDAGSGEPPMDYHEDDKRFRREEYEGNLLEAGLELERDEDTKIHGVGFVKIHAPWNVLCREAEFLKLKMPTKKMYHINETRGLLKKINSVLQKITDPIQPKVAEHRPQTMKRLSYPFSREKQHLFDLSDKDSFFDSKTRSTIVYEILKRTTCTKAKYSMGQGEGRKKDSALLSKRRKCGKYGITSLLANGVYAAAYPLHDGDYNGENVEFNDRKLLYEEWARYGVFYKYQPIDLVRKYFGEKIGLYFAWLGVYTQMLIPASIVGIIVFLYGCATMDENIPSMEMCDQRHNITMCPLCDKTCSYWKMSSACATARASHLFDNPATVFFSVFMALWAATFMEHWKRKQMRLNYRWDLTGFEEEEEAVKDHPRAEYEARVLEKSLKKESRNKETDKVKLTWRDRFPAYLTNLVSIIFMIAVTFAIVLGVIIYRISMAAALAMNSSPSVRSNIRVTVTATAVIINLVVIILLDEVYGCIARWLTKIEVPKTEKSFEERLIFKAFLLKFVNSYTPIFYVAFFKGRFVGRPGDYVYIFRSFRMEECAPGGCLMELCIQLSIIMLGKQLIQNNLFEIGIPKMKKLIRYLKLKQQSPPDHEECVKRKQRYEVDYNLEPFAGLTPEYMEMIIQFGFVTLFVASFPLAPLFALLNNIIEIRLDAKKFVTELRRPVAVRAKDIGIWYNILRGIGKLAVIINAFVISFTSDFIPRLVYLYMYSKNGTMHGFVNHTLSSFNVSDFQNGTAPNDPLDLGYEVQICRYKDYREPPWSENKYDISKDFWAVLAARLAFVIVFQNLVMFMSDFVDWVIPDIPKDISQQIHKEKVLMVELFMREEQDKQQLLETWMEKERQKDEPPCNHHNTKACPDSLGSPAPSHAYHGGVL
Experiment: IonWorks Barracuda perforated patch clamp, ionomycin-activated TMEM16A inward current
Format: cell-based
Details: 10 μM ionomycin, Vhold −30 mV
Source text: HEK293 cells stably expressing the human TMEM16A (abc) variant and CHO cells expressing the human CFTR gene were from ChanTest. The IonWorks Barracuda (IWB) procedure and data provided are from outsourced studies performed at ChanTest (Charles River Discovery, Cleveland, OH, United States) who were blinded as to the identity of the test articles or compounds provided by Amgen. As a control, benchmark inhibitors CFTRinh-172, GlyH-101 and benzbromarone were included amongst the blinded compounds submitted and performed as expected.
For IonWorks Barracuda studies on TMEM16A compounds, in brief eight test article concentrations were applied to naïve cells (n = 4, where n = the number of replicate wells/concentration) via steel needles of a 384-channel pipettor. Each application consists of addition of 20 μl of 2X concentrated test article solution to the total 40 μl final volume of the extracellular well of the Population Patch ClampTM (PPC) planar electrode. This addition is followed by mixing (one time) of the PPC well content. Duration of exposure to each test article concentration was at least 5 min. The electrophysiology procedure used: (a) Intracellular solution containing 50 mM CsCl, 90 mM CsF, 5 mM MgCl2, 1 mM EGTA, 10 mM HEPES, adjusted to pH 7.2 with CsOH; (b) Amphotericin B for patch perforation, where 30 mg/ml stock solution of amphotericin B in DMSO is added to internal solution to final concentration of 33.3 μg/ml; (c) Extracellular solution containing HEPES-buffered physiological saline (HBPS): 137 mM NaCl, 4 mM KCl, 1.8 mM CaCl2, 1 mM MgCl2, 10 mM HEPES, 10 mM glucose, adjusted to pH 7.4 with NaOH; and (d) Ionomycin stimulation of chloride currents where 10 μM ionomycin is added to all test solutions including vehicle and positive controls. […] After establishment of a whole-cell configuration via patch perforation (∼7–10 min exposure to amphotericin B), membrane currents were recorded using the on-board patch clamp amplifiers. […]

Compound	effect on ionomycin-activated inward current at −100 mV, perforated patch clamp
N#Cc1c(C(F)(F)F)cc(O)n2c1nc1ccccc12 [1PBC]	robust inhibition
CCc1oc2ccccc2c1C(=O)c1cc(Br)c(O)c(Br)c1 [Benzbromarone]	effective in blocking
O=C(O)c1cccnc1Nc1cccc(C(F)(F)F)c1 [Niflumic Acid]	inhibition (not stimulation)
